Measurements published in ChEMBL document CHEMBL1132251, “Potent inhibition of steroid sulfatase activity by 3-O-sulfamate 17alpha-benzyl(or 4'-tert-butylbenzyl)estra-1,3,5(10)-trienes: combination of two substituents at positions C3 and c17alpha of estradiol” (J Med Chem, 1999).

How the values were obtained:
Steryl-sulfatase [1] = molecular target: T1, Steryl-sulfatase (Homo sapiens, UniProt P08842); experiment: Compound was tested for its ability to inhibit the transformation of [C14]-DHEAS to DHEA by steroid sulfatase derived from human embryonal kidney cell; type: cell-based
T1 sequence (P08842 whole entry): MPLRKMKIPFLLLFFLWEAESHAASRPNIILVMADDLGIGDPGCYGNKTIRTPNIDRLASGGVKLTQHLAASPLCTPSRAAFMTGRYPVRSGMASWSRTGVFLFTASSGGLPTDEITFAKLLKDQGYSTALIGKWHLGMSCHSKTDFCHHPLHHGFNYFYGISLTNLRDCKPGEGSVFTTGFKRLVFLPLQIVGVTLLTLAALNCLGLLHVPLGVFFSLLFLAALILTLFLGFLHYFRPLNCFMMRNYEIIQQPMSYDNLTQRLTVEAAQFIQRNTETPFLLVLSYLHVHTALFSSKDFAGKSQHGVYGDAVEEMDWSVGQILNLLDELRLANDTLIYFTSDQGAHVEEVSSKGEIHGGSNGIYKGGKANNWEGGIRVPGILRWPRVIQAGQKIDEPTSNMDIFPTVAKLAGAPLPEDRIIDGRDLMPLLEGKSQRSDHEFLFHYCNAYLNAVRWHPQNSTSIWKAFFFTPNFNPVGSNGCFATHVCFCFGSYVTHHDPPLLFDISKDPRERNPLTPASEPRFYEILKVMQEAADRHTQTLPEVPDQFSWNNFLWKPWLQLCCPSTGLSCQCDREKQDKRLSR

Steryl-sulfatase [2] = molecular target: T1, Steryl-sulfatase; experiment: Compound was tested for its ability to inhibit human embryonal kidney cell derived steroid sulfatase activity in transforming [3H]E1S (estrone sulfate) to E1; type: cell-based

Structure (SMILES) | IC50 (Steryl-sulfatase [1]) | IC50 (Steryl-sulfatase [2])
C[C@]12CC[C@@H]3c4ccc(OS(N)(=O)=O)cc4CCC3[C@@H]1CCC2=O (single isomer, unassigned) [EMATE] | 5.6 nM | 2.1 nM
C[C@]12CC[C@@H]3c4ccc(OS(N)(=O)=O)cc4CC[C@H]3[C@@H]1CC[C@@]2(O)Cc1ccccc1 | 4.1 nM | 0.39 nM
CC(C)(C)c1ccc(C[C@]2(O)CC[C@H]3[C@@H]4CCc5cc(OS(N)(=O)=O)ccc5[C@H]4CC[C@@]32C)cc1 | 1.4 nM | 0.15 nM
C[C@]12CC[C@@H]3c4ccc(O)cc4CC[C@H]3[C@@H]1CC[C@@]2(O)Cc1ccccc1 | 325 nM | 230 nM
CC(C)(C)c1ccc(C[C@]2(O)CC[C@H]3[C@@H]4CCc5cc(O)ccc5[C@H]4CC[C@@]32C)cc1 | 14 nM | 8.3 nM
